From US12144788B2, “Visual cycle modulators” (CASE WESTERN RESERVE UNIVERSITY, priority 2017, dated 2024)
“Also recorded” adds a separate entry of the source.

Tests used:
[1] = tested on: visual chromophore regeneration in C57BL6J mouse eyes; experiment: visual chromophore recovery assay (ocular 11-cis-retinal by HPLC after bleach); type: in vivo
Method: FIG. 4 illustrates inhibition of visual chromophore regeneration in C57BL6J mouse eyes by MB compounds. The MB drugs were administrated to mice by oral gavage 24 h prior to light exposure for 10 min. Then all mice recovered under darkness for 6 h.
Abca4^−/−Rdh8^−/− mice on a C57BL/6J background were generated as previously described. Male and female WT mice with C57BL/6J backgrounds were obtained from The Jackson Laboratory. Abca4^−/−Rdh8^−/− mice used in this study were homozygous for the Leu450 allele of Rpe65 as determined by a genotyping protocol published previously and free of Crb1/rd8 and rd/rd mutations Animals were housed either in the animal facility at the Case Western Reserve University School of Medicine, where they received a standard chow diet (LabDiet 5053) and were maintained under a 12-h light (˜300 lux) and 12-h dark cycle or at the Cole Eye Institute animal facility where they were. Mice were dark adapted overnight prior to all experiments. A cohort of Rdh8^−/−Abca4^−/− or C57BL/6J mice was used when they reached the age of 1 to 2 months, and both sexes were used evenly. All tested primary amines were suspended in 100 μl soybean oil with less than 10% (v/v) DMSO and were administered by oral gavage with a 22-gauge feeding needle. Experimental manipulations in the dark were done under dim red light transmitted through a Kodak No. 1 Safelight Filter (transmittance >560 nm).
After bright light exposure resulting in photoactivation of 95% of rhodopsin, mice were kept in the dark for 6 h. Then, the animals were euthanized and their eyes were collected and homogenized in 10 mM sodium phosphate buffer, pH 7.4, containing 50% methanol (v/v) and 40 mM hydroxylamine. The resulting mixture was extracted with 4 ml of hexanes.
Next, we tested the effects of the MB compound series on retinoid cycle function in the living mouse. […] After the light treatment, mice were allowed to dark adapt for 6 h before their ocular retinoid content was determined by HPLC. […] To examine the possibility that the lack of MB-008 efficacy at 24 h was due to insufficient concentrations resulting from a shorter elimination half-life or poorer bioavailability, we repeated the experiment with the mice subjected to light exposure 4 h after MB-008 administration. A 100 μg dose of MB-008 suppressed visual chromophore regeneration by ˜80%, supporting the idea that the retinal concentration of MB-008 could be sub-effective at the longer post-treatment light challenge.

[2] = tested on: C57BL/6J mice; experiment: in vivo dark-adapted ERG recordings after bleach; parameters: species or system mouse; settings: gavage 1 day before bleach, doses indicated effective by retinoid analysis
Method: FIG. 5 illustrates ERG responses of mice treated with visual cycle modulators. Oral gavage was used to administer vehicle or MB compounds to mice 24 h prior to 10 min light exposure followed by 6 h of dark adaptation. Dark-adapted ERGs were obtained to strobe flash stimuli.
C57BL/6J mice aged 1.5-4 months were anesthetized with ketamine (80 mg/kg) and xylazine (16 mg/kg) after overnight dark adaptation. Mydriatic eye drops were used to dilate the pupil (1% tropicamide; 2.5% phenylephrine). ERGs were obtained using an active electrode that contacted the corneal surface; needle electrodes placed in the cheek and tail provided reference and ground leads, respectively. Strobe stimuli were presented to the dark-adapted eye in an LKC (Gaithersburg, MD) ganzfeld. Responses were amplified, averaged and stored using an LKC UTAS E-3000 signal averaging system.
Baseline dark-adapted ERGs were recorded from each mouse. After a minimum 1 day interval, MB compounds or vehicle were administered by gavage at 9 a.m. The next morning, mydriatic eye drops were used to dilate the pupils and mice were then exposed to a 10-minute 10,000 lux bleach. Mice were dark-adapted for 6 hours, after which ERGs were recorded.
We next examined the impact of these compounds on retinal function, measured using the electroretinogram (ERG). FIG. 5 presents a family of dark-adapted ERGs measured 6 hours after mice underwent a 95% bleach presented 1 day following gavage administration of vehicle or MB compound molecules at doses indicated to be effective by retinoid analysis. […] In comparison, mice administered with MB compound molecules had had reduced amplitude ERGs indicative of incomplete bleaching recovery. […] In response to higher luminance stimuli, reproducible responses were observed. That these reflect dark-adapted cone-mediated responses is supported by their similarity to responses obtained from transducin KO mice which lack rod-mediated activity, while retaining normal cone-mediated responses, and have a very similar ERG phenotype.

[3] = identification of atRAL Schiff base conjugates with MB compounds in mouse eyes; type: in vivo; settings: Abca4−/−Rdh8−/− mice, 50 mg/kg oral gavage, bright light exposure 10 min; mass spectrometry versus standards
Method: FIGS. 6(A-B) illustrate identification of retinal Schiff base conjugates in Abca4^−/− Rdh8^−/− mice treated with MB-005 and MB-006. Following drug administration, mice were exposed to intense light for 10 min. After a 30 min recovery under darkness, animals were sacrificed and retinoids were extracted from the eyes. (A, B) Shown in the top panels are selective ion chromatograms for MB-005-retinal conjugates (A, at m/z=572.6) and MB-006-retinal conjugates (B, at m/z=588.6). Panels on the bottom show the mass spectra of the peaks coinciding with the retention times of their authentic standards. The insets display the MS/MS fragmentation patterns of the two imines, which were identical to the corresponding standards.
MB-005 or MB-006 (50 mg/kg) were administrated by oral gavage to Abca4^−/−Rdh8^−/− mice 24 h prior to light exposure. After exposure to fluorescent light for 10 min, animals were euthanized and their eyes were collected and homogenized in acetonitrile. After centrifugation, the supernatant was concentrated to 400 μl under vacuum. […]
With the effects of these compounds on visual cycle function established we next sought to examine their ability to form retinal-Schiff base conjugates in vivo. […] Retinoids were extracted and analyzed by mass spectrometry. […]

- dark-adapted ERG 6 hours after 95% bleach [2]: less incomplete recovery
SMILES: CC(C)c1cc(OCC2CCCCC2)cc(C(O)CCN)c1 (stereo not shown) [MB-005, 3-Amino-1-(3-(cyclohexylmethoxy)-5-isopropylphenyl)propan-1-ol]
- effect on 11-cis-retinal recovery / visual cycle function ([1]; 500 μg (0.5 mg/mouse) oral gavage 24 h before light exposure, 6 h dark): minimal effects; also recorded: no measurable effect
- visual cycle function ([1]; 2 mg/mouse oral gavage): severely impaired
- fold greater inhibition of visual cycle function at 4 h versus 24 h ([1]; 4 h versus 24 h between dose and light): ~3 fold
- effect of shortening the time between drug administration and the light challenge ([1]; shorter interval versus 24 h): enhanced the inhibitory effects
- inhibition of 11-cis-retinal recovery (suppression of visual chromophore regeneration) ([1]; two-fold higher dose than 500 μg (1 mg per mouse), oral gavage 24 h before light exposure): ~50% and approximately 60%
- retinal Schiff base adducts in eye extracts [3]: contained compounds matching the expected molecular weight of the respective Schiff base adducts
